Results reported in patent EP1263429B1, “ANTIVIRAL THERAPY” (Universiteit Utrecht, priority 2000, dated 2001).

How the values were obtained:
[1] = test system: drug-resistant HIV strains; conditions: Table 2 strains
HIV-1Ba-L = assay: HIV-1 production by chronically infected MDM, p24-core antigen ELISA; assay type: cell-based; conditions: Fig 6D; APHS added 5 days after infection, 2 days of incubation
Protocol: (A, B) Peripheral blood mononuclear cells (PBMC) were isolated from heparinized blood from HIV-1-, HIV-2-, and hepatitis B-seronegative donors and obtained on Ficoll-Hypaque density gradients. Cells were washed twice, stimulated with 5 µg/ml phytohemagglutinin (PHA), and cultured m RPMI-1640 medium supplemented with 5 mM Hepes, 19 mM sodium bicarbonate, 10 µg/mL gentamicin, and 10% heat-inactivated fetal calf serum (PBMC culture medium) at a concentration of 2 x 10^6 cells/ml. After 3 days of incubation stimulated PBMC were recovered from the flasks and infected for 2 hours with HIV-1Ba-L at a multiplicity of infection of 0.01. Afterwards, HIV-infected and mock-infected PBMC were washed twice to remove unbound virus. […] (B) PBMC were cultured in suspension at a concentration of 2 x 10^6 cells/ml in Teflon flasks in PBMC culture medium. […] After 2 days of incubation samples of culture supernatant were collected. p24-core antigen production was quantified using the enzyme-linked immunosorbent assay (ELISA) system of John Moore. […] (C, D) PBMC were isolated from heparinized blood from HIV-1-, HIV-2-, and hepatitis B-seronegative donors and obtained on Ficoll-Hypaque density gradients. […] After 2 days of incubation samples of culture supernatant were collected. p24-core antigen production was quantified using the enzyme-linked immunosorbent assay (ELISA) system of John Moore. […]

## CCCCC#CCSc1ccccc1OC(C)=O [APHS, o-(acetoxy-phenyl)hept-2-ynyl sulphide]
[1]
  inhibitory activity against drug resistant strains versus activity against a sensitive strain: two- to four-fold higher
HIV-1Ba-L
  inhibition of HIV-1 production by chronically infected MDM: does not inhibit
